Laboratory results from patent US20240110185A1, “INDUCIBLE ANTI-SENSE REPRESSOR SWITCHES AND USES THEREOF” (Trustees of Boston University, priority 2022, published 2024).

Columns and labels:
[1] = test system: mCherry fluorescent reporter; test: Inducible anti-sense repressor switch: mCherry reporter repression and recovery in 293T cells stably expressing ZF-VP64-ERT2 synTF and the reporter construct; type: cell-based, human
Protocol: (§1) To evaluate the kinetics of this repressor switch, 293T cells where generated to stably express both the inducible anti-sense repressor and fluorescent reporter. In order to determine whether the repressor switch is able to transiently silence GOIs, the inventors treated reporter cells with. 1 uM 4-OHT and measured mCherry reporter fluorescence at 1 day, 2 days, and 3 days. In order to determine whether the repressor switch transiently represses GOIs, the inventors removed 4-OHT and measured fluorescence expression after 2 days, 4 days, 6 days, and 8 days (FIG. 5A-5B).
The expression of mCherry was measured at days 0, d1, d2, d3, d4, d6, d7, d9 and d11.
as §1, with “To assess transcriptional repression of the GOI, inducible antisense repressor construct comprising (i) a first transcriptional unit comprising a constitutively active promoter operatively linked to a mCherry fluorescent reporter GOI was used, and a (ii) a second transcriptional unit comprising an inverted DNA binding motif (DBM) comprising a zinc finger binding array operatively linked to a minimal promoter (FIG. 4A). To” for “To”, “with 0.1” for “with. 1”
To assess the inducible transcriptional repressor system, the inventors initially used two vectors. One vector comprises a synthetic inducible repressor construct as defined herein, which compromises a gene of interest (GOI) operatively linked to a constitutive promoter, and downstream, a second transcription unit comprising, in brief, a second promoter, and a binding site for the synTF (e.g., DBM or the DNA binding domain). The second vector encoding the inducible synTF (e.g., small molecule induced synTF) comprising a transcriptional activation domain, DNA-binding domain (DBD) and a nuclear localization domain (or cytosolic domain). First, to construct the nucleic acid encoding the small-molecule inducer synTF, one of our artificial zinc finger proteins was attached (see U.S. Pat. No. 10,138,493 B2 and Patent Application No. US 2020/0377564 A1, incorporated herein by reference) to both a VP64 transcriptional domain and ERT2 domain (FIG. 2A). To assess the inducer-dependent, synTF mediated transcriptional repression of the GOI, an engineered construct comprising a constitutively expressed mCherry fluorescent reporter, operatively connected to a constitutive promoter was created, which had, downstream a minimal promoter and an inverted zinc finger binding array (ZF-BD) (also referred to as a DNA binding motif (DBM) (FIG. 4A).
To evaluate the kinetics of this inducible antisense repressor switch, 293T cells were transduced with the vector encoding the synTF and the inducible transcriptional repressor construct to generate a reporter cell line that stably expresses both the inducible synTF and fluorescent reporter. To determine whether the repressor switch was able to transiently silence the GOI mRNA, the cells were treated with three concentrations of 4-OHT and mCherry reporter was measured fluorescence at 1 day, 2 days, and 3 days (FIG. 5A-5B). Next, to determine whether the inducible synTF repressor switch could transiently represses the expression of the GOI, 4-OHT was removed and measured fluorescence expression after 2 days, 4 days, 6 days, and 8 days (FIG. 5B).

mCherry GOI = test: Inducible-repressor circuit with spacer and second promoter, % mCherry and FACS (FIG. 8, FIG. 9); type: cell-based
Excerpt: FIG. 7 is a schematic of an exemplary inducible-repressor circuit (top panel), and a second exemplary inducible-repressor circuit (bottom panel), where the second inducible-repressor circuit is modified to comprise, in the second transcription unit, a spacer and a second promoter, and the DBD, each if which are in the antisense direction to the first transcription unit comprising the first promoter and GOI.

mCherry [2] = test: Inducible-repressor circuit with RZ and synTF-MNAS, % mCherry (FIG. 11); type: cell-based; conditions: 4-OHT d0-d3 at 0.1, 0.2, 0.5 and 1 μM, duplicates
Excerpt: FIG. 10 is a schematic of an exemplary synTF comprising VP64, and an exemplary inducible anti-sense repressor construct comprising, in the second transcription unit, a ribosome entry site (RZ), and a nucleic acid sequence that is the antisense to a portion of the nucleic acid encoding the GOI, which are both 5′ to the second promoter and the DBD. In some embodiments, the antisense to the portion of the GOI, herein referred to as “synTF-mediated nucleic acid sequence” or “synTF-MNAS” can be replaced by any RNAi molecule known to persons of ordinary skill in the art.

mCherry [3] = test: Downstream inducible repression with synTF-RD (zinc finger, KRAB, ERT2) and its repressor construct, % mCherry (FIG. 6B); type: cell-based; conditions: 4-OHT at 0.1, 0.2, 0.5 and 1 μM for d0-d3, 8 days after removal
Excerpt: FIG. 6A-6B show an alternative embodiment of a synTF and construct system for downstream inducible-repression.

In the case of `CC/C(=C(\c1ccc(O)cc1)c1ccc(OCCN(C)C)cc1)c1ccccc1` [4-OHT, 4-hydroxytamoxifen], the “reporter fluorescence expression after 3 days of 4-OHT” value ([1]; 0.1 uM 4-OHT, 293T reporter cells, after 3 days) is reported as “strongly repressed”, the “mCherry expression in the presence of 4-OHT, of normal levels” value ([1]; 4-OHT at 0.1 μM, 0.2 μM and 0.5 μM for d0-d3, 293 cells with synTF and construct of FIG. 2A-2B) is reported as “about 20%” and the “mCherry levels 8 days after the removal of 4-OHT” value ([1]; 4-OHT at 0.1 μM, 8 days after removal) is reported as “back to normal levels”. The “reporter fluorescence expression after 4-OHT removal” value ([1]; 8 days post 4-OHT removal) was “restored”, the “mCherry expression restored, of baseline levels” value ([1]; 8 days post 4-OHT removal, 0.1 M 4-OHT treatment (so in the source)) was 100% and the “repression of mCherry expression” value ([1]; all three 4-OHT concentrations, after 3 days, 293T reporter cells) was “approx. 80%”. The “mCherry expression after the removal of 4-OHT” value ([1]; d4-d11, after 3 days of 4-OHT) was “significantly increased”, the “repression of mCherry compared with the construct in the top panel of FIG. 7” value (mCherry GOI; 4-OHT d0-d3 at 0.1 μM, 0.2 M (so in the source), 0.5 μM and 1 μM, duplicates, spacer and second promoter circuit) was “greater repression” and the “mCherry expression, FACS flow plot” value (mCherry GOI; 2 days after addition of 1 uM 4-OHT, decreased from 87.9% before) was 69.8%. For the same compound, the “repression of mCherry compared with the construct in the top panel of FIG. 7” value (mCherry [2]) was “greater repression” and the “repression of mCherry compared with the synTF and construct of FIG. 5B” value (mCherry [3]) was “milder repression”.
